Experimental data as given in publication PMC8911884, “Discovery of Novel 3,4-Dihydro-2(1H)-Quinolinone Sulfonamide Derivatives as New Tubulin Polymerization Inhibitors with Anti-Cancer Activity” (Molecules, 2022).
“Also recorded” adds a separate entry of the source.

How the values were obtained:
HeLa = test: MTT antiproliferative assay, HeLa; assay type: cell-based, human; settings: 48 h, mean ± SD
From the text: (§1) The MTT method was used to evaluate the anti-tumor activity and cytotoxic activity of all the synthesized compounds in four tumor cell lines (HeLa, HCT-116, A549 and HepG-2) and normal liver cells (L02). At the same time, the 5-fluorouracil(5-Fu) and CA-4 were used as positive references. […] Unfortunately, our target compound has a similar cytotoxicity to tumor cells and normal cells.
(§2) The HeLa, HCT-116, A549 and HepG-2 cells in the logarithmic growth phase were trypsinized, diluted with 10% DMEM medium and evenly seeded in a 96-well plate with 1 × 10^4 cells per well. We placed the inoculated 96-well plate in an incubator at 37 °C and 5% CO2 for 4 h. After the cells adhered to the wall, we removed the medium. We added 150 μL of medicated medium (1% DMEM) to each well of the experimental group, and the control group was added with an equal volume of solvent, with 3 replicate holes for each concentration. Then, we put it in the incubator and continued to incubate for 48 h. After that, we added MTT reagent in the dark, continued incubating for 4 h, discarded the supernatant, added 150 µL DMSO to each well and shook it for 10 min in the dark to fully dissolved the formazan. The absorbance was read at 492 nm by a microplate reader (ELx 800, BioTek, Highland Park, Winooski, VT, USA).
(§3) The inhibition rate (%) = (1-dosing hole OD value/control hole OD value); we drew a logarithmic curve diagram according to the inhibition rate and the dosing concentration to obtain the half inhibitory concentration.

A549 = test: MTT antiproliferative assay, A549; assay type: cell-based, human; settings: mean ± SD
Protocol: The MTT method was used to evaluate the anti-tumor activity and cytotoxic activity of all the synthesized compounds in four tumor cell lines (HeLa, HCT-116, A549 and HepG-2) and normal liver cells (L02).
as §2, §3

HCT116 = test: MTT antiproliferative assay, HCT116; assay type: cell-based, human; settings: mean ± SD
From the text: as §1, §2, §3

HepG-2 = test: MTT antiproliferative assay, HepG-2; assay type: cell-based, human; settings: mean ± SD
From the text: as §1, §2, §3

L02 = test: MTT cytotoxicity assay, normal liver cells L02; assay type: cell-based; settings: mean ± SD
From the text: as §1, §2, §3

[1] = tested on: HeLa, HCT-116, A549 and HepG-2; test: MTT antiproliferative activity across the four tumor cell lines; assay type: cell-based, human; settings: SAR discussion
From the text: as §1
As shown in, at the beginning, we first synthesized the ortho and meta substituted compounds, D7, D8, D9, D11 and D15. […] Then, we decided to introduce para-substituted benzaldehyde. […] This stimulated our interest, so we continued to introduce -OCH3 substituted at different positions to explore the effect of -OCH3 substituted at different positions on the anti-tumor activity of the compound. […] In short, we obtained a compound named D13 with good anti-tumor activity, and it was worthy of further study.
as §2, §3

tubulin = molecular target: T1, tubulin (Sus scrofa, UniProt P02550+P02554); test: In vitro tubulin polymerization assay (fluorescence kit); assay type: biochemical; settings: area under fluorescence curve, 37 °C, 40 min
T1 construct: purchased Cytoskeleton (Danvers, MA, USA) BK011P
T1 sequence (P02554 whole entry): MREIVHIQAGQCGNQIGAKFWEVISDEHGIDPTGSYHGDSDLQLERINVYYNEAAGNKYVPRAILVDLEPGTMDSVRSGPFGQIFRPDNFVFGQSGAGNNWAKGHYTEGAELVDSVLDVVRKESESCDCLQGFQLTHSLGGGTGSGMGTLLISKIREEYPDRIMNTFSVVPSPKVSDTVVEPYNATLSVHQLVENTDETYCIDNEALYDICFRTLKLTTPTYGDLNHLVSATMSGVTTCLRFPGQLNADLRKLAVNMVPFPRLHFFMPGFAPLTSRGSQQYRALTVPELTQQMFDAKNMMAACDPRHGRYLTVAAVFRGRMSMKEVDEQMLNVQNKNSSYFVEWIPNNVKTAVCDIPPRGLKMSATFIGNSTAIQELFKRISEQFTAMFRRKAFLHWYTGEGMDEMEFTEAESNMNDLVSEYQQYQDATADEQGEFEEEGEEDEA
T1 sequence (P02550 whole entry): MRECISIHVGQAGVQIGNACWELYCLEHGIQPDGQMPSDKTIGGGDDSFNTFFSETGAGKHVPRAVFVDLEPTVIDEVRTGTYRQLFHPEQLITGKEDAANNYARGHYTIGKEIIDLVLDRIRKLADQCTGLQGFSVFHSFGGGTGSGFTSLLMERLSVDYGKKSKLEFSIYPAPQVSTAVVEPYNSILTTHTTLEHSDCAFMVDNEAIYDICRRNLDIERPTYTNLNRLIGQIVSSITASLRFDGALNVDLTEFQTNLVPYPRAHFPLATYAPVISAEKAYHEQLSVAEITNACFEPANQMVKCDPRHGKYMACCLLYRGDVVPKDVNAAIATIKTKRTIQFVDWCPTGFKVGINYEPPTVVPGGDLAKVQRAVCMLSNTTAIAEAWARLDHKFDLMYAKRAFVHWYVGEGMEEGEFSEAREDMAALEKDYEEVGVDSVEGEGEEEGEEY

Row | IC50 (HeLa; Homo sapiens, HeLa) [µM] | IC50 (A549; Homo sapiens, A549, 48 h) [µM] | IC50 (HCT116; Homo sapiens, HCT-116, 48 h) [µM] | melting point [°C] | IC50 (HeLa) [µM] | IC50 (tubulin) [µM] | IC50 (A549; 48 h) [µM] | IC50 (HCT116; 48 h) [µM] | Molecule | IC50 (HepG-2; Homo sapiens, HepG2, 48 h) [µM] | IC50 (L02; Homo sapiens, L02, 48 h) [µM] | antiproliferative activity (in words) [1] | IC50 (HepG-2; 48 h) [µM] | IC50 (L02; 48 h) [µM]
1 | 3.63 ± 0.98 | 2.42 ± 0.46 | 2.05 ± 0.11 | 127 to 129 |  |  |  |  | COc1cc(N(Cc2ccc(N(C)C)cc2)S(=O)(=O)c2ccc3c(c2)CCC(=O)N3)cc(OC)c1OC [Compound D6, N-(4-(dimethylamino)benzyl)-2-oxo-N-(3,4,5-trimethoxyphenyl)-1,2,3,4-tetrahydroquinoline-6-sulfonamide] | 4.74 ± 1.56 | 5.31 ± 1.02 | strong anti-proliferative activity |  | 
2 | > 100 | 49.3 ± 12.5 | 87.8 ± 15.2 | 116 to 118 |  |  |  |  | COc1ccc(CN(c2cc(OC)c(OC)c(OC)c2)S(=O)(=O)c2ccc3c(c2)CCC(=O)N3)cc1OC [Compound D14, N-(3,4-dimethoxybenzyl)-2-oxo-N-(3,4,5-trimethoxyphenyl)-1,2,3,4-tetrahydroquinoline-6-sulfonamide] |  | 66.5 ± 7.81 | poor antiproliferative activity |  | 
3 | 1.34 | 1.57 ± 0.25 | 0.94 ± 0.31 | 122 to 124 | 1.46 ± 0.11 | 6.74 |  |  | COc1ccc(CN(c2cc(OC)c(OC)c(OC)c2)S(=O)(=O)c2ccc3c(c2)CCC(=O)N3)cc1 [Compound D13, N-(4-methoxybenzyl)-2-oxo-N-(3,4,5-trimethoxyphenyl)-1,2,3,4-tetrahydroquinoline-6-sulfonamide] | 1.82 ± 0.97 | 3.61 ± 1.02 | strongest anti-proliferative activity; also recorded: strong anti-proliferative activity |  | 
4 | 21.6 ± 3.56 | > 100 | 17.5 ± 1.33 | 138 to 140 |  |  |  |  | COc1cc(N(Cc2ccccc2F)S(=O)(=O)c2ccc3c(c2)CCC(=O)N3)cc(OC)c1OC [Compound D8, N-(2-fluorobenzyl)-2-oxo-N-(3,4,5-trimethoxyphenyl)-1,2,3,4-tetrahydroquinoline-6-sulfonamide] | 50.9 ± 6.77 | 60.2 ± 4.21 | poor antiproliferative activity |  | 
5 | 86.4 ± 14.2 |  | > 100 | 127 to 129 |  |  |  |  | COc1ccc(OC)c(CN(c2cc(OC)c(OC)c(OC)c2)S(=O)(=O)c2ccc3c(c2)CCC(=O)N3)c1 [Compound D15] | 75.4 ± 15.4 | > 100 | poor antiproliferative activity |  | 
6 | 9.67 ± 2.1 | 8.49 ± 1.77 | 4.21 ± 0.5 | 119 to 121 |  |  |  |  | COc1cc(N(Cc2ccc(Cl)cc2)S(=O)(=O)c2ccc3c(c2)CCC(=O)N3)cc(OC)c1OC [Compound D4, N-(4-chlorobenzyl)-2-oxo-N-(3,4,5-trimethoxyphenyl)-1,2,3,4-tetrahydroquinoline-6-sulfonamide] | 4.12 ± 0.55 | 6.35 ± 2.03 | strong anti-proliferative activity |  | 
7 | 54.6 ± 8.15 |  | 48.2 ± 7.46 | 121 to 123 |  |  |  |  | COc1cccc(CN(c2cc(OC)c(OC)c(OC)c2)S(=O)(=O)c2ccc3c(c2)CCC(=O)N3)c1 [Compound D12, N-(3-methoxybenzyl)-2-oxo-N-(3,4,5-trimethoxyphenyl)-1,2,3,4-tetrahydroquinoline-6-sulfonamide] | 64.1 ± 7.56 | 56.3 ± 2.15 | poor antiproliferative activity |  | 
8 | 36.5 ± 3.59 | 35 ± 6.74 | 28.2 ± 4.26 | 120 to 122 |  |  |  |  | COc1cc(N(Cc2cccc(C)c2)S(=O)(=O)c2ccc3c(c2)CCC(=O)N3)cc(OC)c1OC [Compound D7, N-(3-methylbenzyl)-2-oxo-N-(3,4,5-trimethoxyphenyl)-1,2,3,4-tetrahydroquinoline-6-sulfonamide] | 44.3 ± 4.31 | 30.2 ± 2.56 | poor antiproliferative activity |  | 
9 | 4.91 ± 0.76 | 7.34 ± 1.44 | 2.08 ± 0.24 | 131 to 133 |  |  |  |  | COc1cc(CN(c2cc(OC)c(OC)c(OC)c2)S(=O)(=O)c2ccc3c(c2)CCC(=O)N3)cc(OC)c1OC [Compound D16, 2-oxo-N-(3,4,5-trimethoxybenzyl)-N-(3,4,5-trimethoxyphenyl)-1,2,3,4-tetrahydroquinoline-6-sulfonamide] | 5.48 ± 1.23 | 4.25 ± 0.87 |  |  | 
10 | 1.34 ± 0.3 | 2.96 ± 0.13 | 1.13 ± 0.01 | 128 to 130 |  |  |  |  | COc1cc(N(Cc2ccc(C)cc2)S(=O)(=O)c2ccc3c(c2)CCC(=O)N3)cc(OC)c1OC [Compound D5, N-(4-methylbenzyl)-2-oxo-N-(3,4,5-trimethoxyphenyl)-1,2,3,4-tetrahydroquinoline-6-sulfonamide] | 2.36 ± 0.11 | 3.05 ± 0.19 | strong anti-proliferative activity |  | 
11 | 29.6 ± 3.21 |  | 11.7 ± 2.37 |  |  |  |  |  | O=c1[nH]cc(F)c(=O)[nH]1 [Compound 5-Fu, 5-fluorouracil, reference compound] | 18.3 ± 0.76 | 20 ± 1.25 |  |  | 
12 | 75.3 ± 10.3 | > 100 | 51.2 ± 13.5 | 123 to 125 |  |  |  |  | COc1cc(N(Cc2ccc(Cl)c(Cl)c2)S(=O)(=O)c2ccc3c(c2)CCC(=O)N3)cc(OC)c1OC [Compound D10, N-(3,4-dichlorobenzyl)-2-oxo-N-(3,4,5-trimethoxyphenyl)-1,2,3,4-tetrahydroquinoline-6-sulfonamide] |  | 48.3 ± 6.64 |  |  | 
13 | 16.9 ± 4.11 | 31.7 ± 4.55 | 12.2 ± 2.89 | 117 to 119 |  |  |  |  | COc1cc(N(Cc2ccccc2Cl)S(=O)(=O)c2ccc3c(c2)CCC(=O)N3)cc(OC)c1OC [Compound D9, N-(2-chlorobenzyl)-2-oxo-N-(3,4,5-trimethoxyphenyl)-1,2,3,4-tetrahydroquinoline-6-sulfonamide] | 27.5 ± 3.28 | 36.2 ± 4.21 | poor antiproliferative activity |  | 
14 | 7.54 ± 1.48 | 18.2 ± 4.11 | 3.87 ± 0.12 | 108 to 110 |  |  |  |  | COc1cc(N(Cc2ccc(F)cc2)S(=O)(=O)c2ccc3c(c2)CCC(=O)N3)cc(OC)c1OC [Compound D3, N-(4-fluorobenzyl)-2-oxo-N-(3,4,5-trimethoxyphenyl)-1,2,3,4-tetrahydroquinoline-6-sulfonamide] | 6.31 ± 1.21 | 5.31 ± 1.08 | strong anti-proliferative activity |  | 
15 |  |  |  |  | 13.5 ± 2.15 |  | 14.2 ± 1.26 | 25.9 ± 0.98 | N-benzyl-2-oxo-N-(3,4,5-trimethoxyphenyl)-1,2,3,4-tetrahydroquinoline-7-sulfonamide [Compound D1] |  |  | strong anti-proliferative activity | 9.87 ± 2.49 | 20.7 ± 3.12

Row | Molecule | IC50 (HeLa; Homo sapiens, HeLa) [µM] | IC50 (A549; Homo sapiens, A549, 48 h) [µM] | IC50 (HCT116; Homo sapiens, HCT-116, 48 h) [µM] | melting point [°C] | IC50 (HeLa) [µM] | IC50 (tubulin) [µM] | IC50 (A549; 48 h) [µM] | IC50 (HCT116; 48 h) [µM] | IC50 (HepG-2; Homo sapiens, HepG2, 48 h) [µM] | IC50 (L02; Homo sapiens, L02, 48 h) [µM] | antiproliferative activity (in words) [1] | IC50 (HepG-2; 48 h) [µM] | IC50 (L02; 48 h) [µM]
16 | COc1ccc(/C=C\c2cc(OC)c(OC)c(OC)c2)cc1O [CA-4, Combretastatin A-4, reference compound] | 0.02 ± 0.001 | 0.12 ± 0.023 | 0.04 ± 0.016 |  |  |  |  |  | 0.05 ± 0.021 | 0.15 ± 0.05 |  |  | 
